Measured values from patent publication EP0338092A1, “ANTI-HIV AGENT” (Chugai Seiyaku Kabushiki Kaisha, priority 1987, dated 1989).

Tested on: HIV
Assay: Detection of viral antigen (indirect fluorescent antibody technique) in HIV-infected Molt-4 clone No. 8 cells
Format: cell-based
Procedure: The sodium salts of oligosaccharide poly-sulfate esters prepared in Preparation Examples 1 - 3 and 5 - 7 were used as test samples. Molt-4 clone No. 8 cells were infected with a virus obtained from Molt-4/HIV producing cell.
The experiment was conducted in accordance with the method of Itoh et al. described in Antiviral Research, 7 (1987), 361 - 367.
The proportions of HIV antigen positive cells were determined by an indirect fluorescent antibody technique using an anti-HIV antibody positive serum as antibody against the infected cells. The results are shown in Tables 2 and 3, in which each of the figure listed denotes the percentage of infected cells taken by HIV antigen positive cells.

[1] = Table 3, amount of sample added 7.8 µg/ml
[2] = Table 3, amount of sample added 32 µg/ml
[3] = Table 3, amount of sample added 125 µg/ml
[4] = Table 3, amount of sample added 500 µg/ml
[5] = Table 3, amount of sample added 1000 µg/ml

| Substance | percentage of infected cells taken by HIV antigen positive cells [1] [%] | percentage of infected cells taken by HIV antigen positive cells [2] [%] | percentage of infected cells taken by HIV antigen positive cells [3] [%] | percentage of infected cells taken by HIV antigen positive cells [4] [%] | percentage of infected cells taken by HIV antigen positive cells [5] [%] |
| --- | --- | --- | --- | --- | --- |
| sodium salt of maltoheptaose sulfate ester [compound 7] | 18.2 | 4.8 | 4.4 | 4.1 | 3.2 |
| sodium salt of maltopentaose sulfate ester [compound 6] | 24.1 | 6.4 | 6.0 | 4.4 | 4.6 |
| sodium salt of maltohexaose sulfate ester [compound 5] | 20.3 | 5.3 | 5.8 | 3.6 | 4.4 |
